In US8664235B2, “6-Halogeno-[1,2,4]triazolo[1,5-a]pyrimidines for combating animal pests” (Merial Limited, priority 2003, dated 2014):

Assays:
Format in all cases: in vivo
Bean Aphid (Aphis fabae) = assay: Bean aphid test, nasturtium foliage and stem dipped; settings: foliar, 72 h, nasturtium plants, after 3 days, read-out: mortality in comparison with untreated controls
Description: (§1) Surfactant (Alkamuls EL 620) was added at the rate of 0.1% (vol/vol).
(§2) After the experiments were completed, in each case the lowest concentration was determined at which the compound still caused an 75 to 100% inhibition or mortality in comparison with untreated controls (limit or minimal concentration).
Nasturtium plants in the 1st leaf-pair stage (variety ‘Mixed Jewel’) are infested with approximately 25 laboratory-reared aphids by placing infested cut plants on top of the test plants. The cut plants are removed after 24 hr. The foliage and stem of the test plants are dipped into gradient solutions of the test compound. Aphid mortality is determined after 3 days.

[1] = test system: Cotton Aphid (Aphis gossypii); assay: Cotton aphid test, cotyledons dipped in test solution; settings: 120 h, cotton plants, after 5 days, read-out: mortality in comparison with untreated controls
Description: as §1, §2
(§3) Cotton plants in the cotyledon stage (variety ‘Delta Pine’) are infested with approximately 100 laboratory-reared aphids by placing infested leaf sections on top of the test plants. The leaf sections are removed after 24 hr. The cotyledons of the intact plants are dipped into gradient solutions of the test compound. Aphid mortality on the treated plants, relative to mortality on check plants, is determined after 5 days.

[2] = test system: Twospotted Spider Mite (Tetranychus urticae); assay: Twospotted spider mite test, lima bean foliage dipped; settings: foliar, 120 h, lima bean plants, after 5 days, read-out: mortality in comparison with untreated controls
Description: as §1, §2
Lima bean plants in the 1st leaf-pair stage (variety ‘Henderson’) are infested with approximately 100 laboratory-reared mites per leaf by placing infested leaf sections on top of the test plants. The leaf sections are removed after 24 hr. The foliage of the intact plants is dipped into gradient solutions of the test compound. Mite mortality is determined after 5 days.

[3] = test system: Green Peach Aphid (Myzus persicae); assay: Green peach aphid test, pepper leaves dipped; settings: 120 h, read-out: mortality in comparison with untreated controls
Description: as §1, §2
as §3, with “Pepper” for “Cotton”, “2nd leaf-pair” for “cotyledon”, “‘California Wonder’)” for “‘Delta Pine’)”, “40” for “100”, “leaves” for “cotyledons”

SMILES | mortality at 300 ppm (Bean Aphid (Aphis fabae)) | mortality at 300 ppm [1] | mortality at 300 ppm [2] | mortality at 300 ppm [3]
CCc1nc2ncnn2c(N[C@H]2CC[C@@H](C(C)(C)C)CC2)c1Cl [Example 1, (cis-4-tert-butyl-cyclohexyl)-[6-chloro-5-ethyl-[1,2,4]triazolo[1,5-a]pyrimidin-7-yl]-amine] | > 75% | > 75% | > 75% | 100%
Cc1nc2ncnn2c(N[C@@H](C)c2ccc(F)cc2)c1Cl [Example 114, (S)-(6-chloro-5-methyl-[1,2,4]triazolo[1,5-a]pyrimidin-7-yl)-[1-(4-fluorophenyl)-ethyl]-amine] | – | > 75% | – | 100%
